Experimental data as given in BindingDB's records for doi:10.1124/jpet.105.086363 (Wyeth, 2005).

Key:
[1] = biological target: T1, Alpha-1A adrenergic receptor (Rattus norvegicus, UniProt P43140)
T1 sequence (P43140 whole entry): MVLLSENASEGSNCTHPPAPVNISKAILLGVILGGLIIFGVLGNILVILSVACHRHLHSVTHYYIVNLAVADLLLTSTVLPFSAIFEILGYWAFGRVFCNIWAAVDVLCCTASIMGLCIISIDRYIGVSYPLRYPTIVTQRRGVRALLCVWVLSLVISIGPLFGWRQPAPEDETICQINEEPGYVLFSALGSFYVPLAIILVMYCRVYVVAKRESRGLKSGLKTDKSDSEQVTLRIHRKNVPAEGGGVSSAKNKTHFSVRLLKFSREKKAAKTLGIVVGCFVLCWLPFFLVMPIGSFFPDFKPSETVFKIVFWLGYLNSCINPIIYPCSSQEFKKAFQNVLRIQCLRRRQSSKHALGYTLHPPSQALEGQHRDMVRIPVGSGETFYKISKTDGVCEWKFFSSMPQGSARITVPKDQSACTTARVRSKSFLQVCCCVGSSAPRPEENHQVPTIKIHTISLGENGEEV

D(2) dopamine receptor = D(2) dopamine receptor (Homo sapiens, UniProt P14416)
D(4) dopamine receptor = biological target: T2, D(4) dopamine receptor (Homo sapiens, UniProt P21917)
T2 sequence (P21917 whole entry): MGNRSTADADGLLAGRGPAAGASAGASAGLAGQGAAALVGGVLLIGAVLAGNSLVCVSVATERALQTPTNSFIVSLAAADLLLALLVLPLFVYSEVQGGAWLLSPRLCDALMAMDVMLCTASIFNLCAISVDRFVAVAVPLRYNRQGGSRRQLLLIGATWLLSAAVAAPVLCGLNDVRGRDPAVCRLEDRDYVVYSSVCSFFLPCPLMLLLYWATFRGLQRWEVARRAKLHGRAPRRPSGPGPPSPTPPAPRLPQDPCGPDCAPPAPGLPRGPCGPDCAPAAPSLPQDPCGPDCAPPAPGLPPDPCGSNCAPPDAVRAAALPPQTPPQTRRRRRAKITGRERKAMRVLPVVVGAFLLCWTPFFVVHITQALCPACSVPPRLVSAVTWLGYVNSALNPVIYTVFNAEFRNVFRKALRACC

[2] = biological target: T3, 5-hydroxytryptamine receptor 1A (Homo sapiens, UniProt P08908)
T3 sequence (P08908 whole entry): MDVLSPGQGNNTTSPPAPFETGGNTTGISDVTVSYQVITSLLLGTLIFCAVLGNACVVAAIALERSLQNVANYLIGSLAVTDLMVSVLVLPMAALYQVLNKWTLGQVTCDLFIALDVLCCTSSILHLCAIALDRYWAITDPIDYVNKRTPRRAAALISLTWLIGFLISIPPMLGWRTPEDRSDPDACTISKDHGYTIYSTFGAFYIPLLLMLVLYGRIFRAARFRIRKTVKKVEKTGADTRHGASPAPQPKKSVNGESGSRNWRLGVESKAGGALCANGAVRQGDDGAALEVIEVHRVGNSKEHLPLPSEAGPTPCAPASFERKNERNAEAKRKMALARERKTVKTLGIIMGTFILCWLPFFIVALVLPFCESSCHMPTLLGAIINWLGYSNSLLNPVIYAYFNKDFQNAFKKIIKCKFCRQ

D(3) dopamine receptor = D(3) dopamine receptor (Homo sapiens, UniProt P35462)
Chain of D(3) dopamine receptor (P35462 as listed by the source): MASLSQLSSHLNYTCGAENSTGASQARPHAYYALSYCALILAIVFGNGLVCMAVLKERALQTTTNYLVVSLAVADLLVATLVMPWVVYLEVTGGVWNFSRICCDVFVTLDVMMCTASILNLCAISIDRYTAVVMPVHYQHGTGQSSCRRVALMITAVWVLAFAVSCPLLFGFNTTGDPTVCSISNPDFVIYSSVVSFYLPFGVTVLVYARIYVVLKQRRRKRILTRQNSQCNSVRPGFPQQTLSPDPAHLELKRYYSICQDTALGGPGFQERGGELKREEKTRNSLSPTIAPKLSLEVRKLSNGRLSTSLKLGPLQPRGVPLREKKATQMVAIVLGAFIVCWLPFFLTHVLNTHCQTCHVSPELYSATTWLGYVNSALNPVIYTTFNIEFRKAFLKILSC

Chain of D(2) dopamine receptor (P14416 whole entry): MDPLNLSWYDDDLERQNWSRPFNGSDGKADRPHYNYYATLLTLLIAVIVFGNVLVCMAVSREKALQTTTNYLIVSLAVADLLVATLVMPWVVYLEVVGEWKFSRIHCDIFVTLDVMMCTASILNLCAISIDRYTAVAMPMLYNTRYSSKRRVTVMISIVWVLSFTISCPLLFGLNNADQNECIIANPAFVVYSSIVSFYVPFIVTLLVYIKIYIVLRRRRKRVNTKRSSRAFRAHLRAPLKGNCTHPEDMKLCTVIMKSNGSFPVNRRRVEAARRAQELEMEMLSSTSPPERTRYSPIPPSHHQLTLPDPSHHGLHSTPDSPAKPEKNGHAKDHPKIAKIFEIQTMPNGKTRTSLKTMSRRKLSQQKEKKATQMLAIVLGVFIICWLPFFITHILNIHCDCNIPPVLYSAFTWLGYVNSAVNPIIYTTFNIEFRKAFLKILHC

C[C@H](CN(C(=O)c1ccc(C#N)cc1)c1ccccn1)N1CCN(c2cccc3c2OCCO3)CC1 showed a Ki [1] of 248 nM, a Ki (D(2) dopamine receptor) of 1550 nM and a Ki (D(4) dopamine receptor) of 98 nM. The Ki [2] was 4.5 nM and the Ki (D(3) dopamine receptor) was 320 nM.
